Laboratory results taken from ChEMBL document CHEMBL1201862, “PubChem BioAssay data set” (2004).
Calls of active or inactive are those of the source.

How the values were obtained:
[1] = C. albicans growth with fluconazole, confirmation, fluorescence, retest (AID 2467); assay type: functional, cell-based
[2] = NIH-3T3 fibroblast cytotoxicity, dose response, cytotoxicity control, cell-based, fluorescence, Alamar Blue, secondary assay (AID 2327); assay type: functional;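 also: NIH-3T3 mouse fibroblasts cultured with fluconazole at 8 µg/mL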
[3] = target: T1, Corticotropin-releasing factor receptor 2/Corticotropin-releasing factor-binding protein (Homo sapiens, UniProt P24387+Q13324); experiment: activators of CRF receptor 2 with binding protein – uHTS hits, confirmation (AID 602473); assay type: functional; settings: read-out: EC50_Mean
T1 sequence (Q13324 whole entry): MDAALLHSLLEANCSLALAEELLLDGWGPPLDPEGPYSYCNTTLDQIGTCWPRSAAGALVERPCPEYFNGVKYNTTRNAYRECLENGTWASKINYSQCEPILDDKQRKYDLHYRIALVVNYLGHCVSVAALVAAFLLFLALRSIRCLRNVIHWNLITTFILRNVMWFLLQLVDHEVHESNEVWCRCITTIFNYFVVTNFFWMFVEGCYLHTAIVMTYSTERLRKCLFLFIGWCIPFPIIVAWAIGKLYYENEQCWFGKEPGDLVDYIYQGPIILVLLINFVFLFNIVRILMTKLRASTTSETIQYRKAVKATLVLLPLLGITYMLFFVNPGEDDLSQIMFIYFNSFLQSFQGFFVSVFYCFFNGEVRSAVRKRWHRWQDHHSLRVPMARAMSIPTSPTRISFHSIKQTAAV
T1 sequence (P24387 whole entry): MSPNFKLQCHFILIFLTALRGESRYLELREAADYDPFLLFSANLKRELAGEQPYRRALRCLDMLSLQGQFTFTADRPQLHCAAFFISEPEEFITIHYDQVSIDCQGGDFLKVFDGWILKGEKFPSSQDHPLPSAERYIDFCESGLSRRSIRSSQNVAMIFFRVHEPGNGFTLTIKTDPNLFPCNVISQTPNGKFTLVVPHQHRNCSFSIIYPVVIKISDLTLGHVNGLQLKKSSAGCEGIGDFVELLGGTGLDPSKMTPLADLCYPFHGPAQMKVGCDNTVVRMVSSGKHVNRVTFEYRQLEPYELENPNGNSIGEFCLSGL

[4] = target: T1, Corticotropin-releasing factor receptor 2/Corticotropin-releasing factor-binding protein; experiment: Dose Response confirmation of uHTS hits for small molecule antagonists of the CRF-binding protein and CRF-R2 receptor complex.; assay type: functional; settings: read-out: IC50_Mean
[5] = P. falciparum Dd2 growth inhibitors, dose response, SYBR Green, cherry-picked samples (AID 1159567); assay type: functional, cell-based
[6] = HEp-2 cell cytotoxicity, dose response, cytotoxicity control for RSV inhibitor project, HTS (AID 2410); assay type: functional; settings: human respiratory syncytial virus
[7] = target: FAD-linked sulfhydryl oxidase ALR (Homo sapiens, UniProt P55789); experiment: inhibitors of human ALR sulfhydryl oxidase, dose response, biochemical, H2O2 detection, luminescence, cherry-pick (AID 493248)
H9c2 = experiment: cells; assay type: functional, cell-based; settings: Rattus norvegicus, H9c2, Myocardium;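 also: confirmatory concentration-response retest of ultra-high-throughput screening hits for modulation of myocardial damage; cell death induced by hydrogen peroxide oxidative stress; compound pretreatment for 60 min then peroxide exposure for 2 h; potency is for protecting the cells against peroxide damage rather than for killing them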
INS1 = experiment: beta cell apoptosis inhibitors, cytokine rescue, dose response, luminescence, retest (AID 449756); assay type: functional, cell-based; settings: Rattus norvegicus;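 also: cell death triggered by IL-1 beta plus TNF-alpha plus IFN-gamma mixture; protective hits raise ATP signal compared with cytokine alone wells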
[8] = target: T2, Rac GTPase-activating protein 1 (Homo sapiens, UniProt Q9H0H5); experiment: MgcRacGAP GTPase-activating activity inhibitors, confirmation, biochemical, ADP Hunter fluorescence, primary and confirmatory (AID 624330); assay type: functional
T2 sequence (Q9H0H5 whole entry): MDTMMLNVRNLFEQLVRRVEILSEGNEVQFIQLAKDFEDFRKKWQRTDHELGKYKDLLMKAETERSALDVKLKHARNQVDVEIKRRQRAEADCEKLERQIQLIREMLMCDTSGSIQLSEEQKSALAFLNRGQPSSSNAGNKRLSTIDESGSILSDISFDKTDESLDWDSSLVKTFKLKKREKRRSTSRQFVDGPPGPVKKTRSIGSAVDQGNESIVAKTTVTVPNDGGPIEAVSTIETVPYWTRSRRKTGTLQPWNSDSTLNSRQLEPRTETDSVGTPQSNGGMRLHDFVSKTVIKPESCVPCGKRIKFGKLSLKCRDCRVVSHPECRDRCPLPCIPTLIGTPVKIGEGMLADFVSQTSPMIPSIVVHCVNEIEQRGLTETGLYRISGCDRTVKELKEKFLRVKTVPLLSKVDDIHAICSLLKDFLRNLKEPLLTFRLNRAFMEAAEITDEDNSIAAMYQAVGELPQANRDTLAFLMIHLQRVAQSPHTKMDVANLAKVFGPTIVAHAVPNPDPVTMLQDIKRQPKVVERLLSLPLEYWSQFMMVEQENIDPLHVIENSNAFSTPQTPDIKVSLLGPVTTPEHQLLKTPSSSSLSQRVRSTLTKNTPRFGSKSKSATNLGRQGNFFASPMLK

Cytochrome P450 2C19 = Cytochrome P450 2C19 (Homo sapiens, UniProt P33261); experiment: Cytochrome panel assay with activity outcomes. Panel member name: p450-cyp2c19 Compounds with AC50 equal or less than 10 uM are considered active; assay type: functional; settings: read-out: AC50
Cytochrome P450 3A4 = Cytochrome P450 3A4 (Homo sapiens, UniProt P08684);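 also: CYP3A4 tested as one member of a cytochrome P450 panel screen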
Cytochrome P450 2D6 = Cytochrome P450 2D6 (Homo sapiens, UniProt P10635);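 also: CYP2D6 member of a cytochrome P450 panel assay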
Cytochrome P450 2C9 = Cytochrome P450 2C9 (Homo sapiens, UniProt P11712)
Cytochrome P450 1A2 = target: T3, Cytochrome P450 1A2 (Homo sapiens, UniProt P05177);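 also: PubChem cytochrome P450 panel assay, CYP1A2 panel member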
T3 sequence (P05177 whole entry): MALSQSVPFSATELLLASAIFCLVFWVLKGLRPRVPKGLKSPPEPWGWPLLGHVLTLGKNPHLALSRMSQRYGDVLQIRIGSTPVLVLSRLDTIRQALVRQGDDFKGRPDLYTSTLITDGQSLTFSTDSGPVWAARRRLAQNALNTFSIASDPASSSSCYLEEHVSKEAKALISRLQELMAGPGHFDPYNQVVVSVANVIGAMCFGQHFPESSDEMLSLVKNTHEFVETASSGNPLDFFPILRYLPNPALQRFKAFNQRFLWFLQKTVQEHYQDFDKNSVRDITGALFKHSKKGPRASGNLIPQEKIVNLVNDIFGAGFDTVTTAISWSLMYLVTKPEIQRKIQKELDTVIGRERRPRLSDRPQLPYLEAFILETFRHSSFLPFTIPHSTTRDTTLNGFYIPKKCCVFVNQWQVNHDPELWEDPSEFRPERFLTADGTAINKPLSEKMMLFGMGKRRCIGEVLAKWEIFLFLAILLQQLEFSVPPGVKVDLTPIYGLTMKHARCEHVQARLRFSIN

Chain of FAD-linked sulfhydryl oxidase ALR (P55789 whole entry): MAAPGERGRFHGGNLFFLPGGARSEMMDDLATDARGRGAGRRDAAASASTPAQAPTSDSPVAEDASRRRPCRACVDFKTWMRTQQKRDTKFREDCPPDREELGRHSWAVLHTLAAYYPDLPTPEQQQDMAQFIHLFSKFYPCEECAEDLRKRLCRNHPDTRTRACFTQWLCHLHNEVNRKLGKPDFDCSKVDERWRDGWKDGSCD
Chain of Cytochrome P450 2D6 (P10635 whole entry): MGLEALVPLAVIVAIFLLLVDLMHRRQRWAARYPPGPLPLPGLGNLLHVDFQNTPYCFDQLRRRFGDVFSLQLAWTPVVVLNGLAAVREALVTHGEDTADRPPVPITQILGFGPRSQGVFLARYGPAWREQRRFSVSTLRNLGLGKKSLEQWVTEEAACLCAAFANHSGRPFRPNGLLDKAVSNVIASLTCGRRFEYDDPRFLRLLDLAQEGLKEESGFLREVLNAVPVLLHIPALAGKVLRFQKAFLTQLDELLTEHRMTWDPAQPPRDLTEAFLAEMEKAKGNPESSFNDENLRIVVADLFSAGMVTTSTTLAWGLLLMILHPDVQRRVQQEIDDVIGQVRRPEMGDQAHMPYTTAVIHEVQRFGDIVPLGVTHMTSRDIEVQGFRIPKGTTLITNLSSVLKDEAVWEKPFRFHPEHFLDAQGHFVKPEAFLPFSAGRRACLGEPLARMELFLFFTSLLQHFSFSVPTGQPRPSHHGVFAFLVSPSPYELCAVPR
Chain of Cytochrome P450 2C19 (P33261 whole entry): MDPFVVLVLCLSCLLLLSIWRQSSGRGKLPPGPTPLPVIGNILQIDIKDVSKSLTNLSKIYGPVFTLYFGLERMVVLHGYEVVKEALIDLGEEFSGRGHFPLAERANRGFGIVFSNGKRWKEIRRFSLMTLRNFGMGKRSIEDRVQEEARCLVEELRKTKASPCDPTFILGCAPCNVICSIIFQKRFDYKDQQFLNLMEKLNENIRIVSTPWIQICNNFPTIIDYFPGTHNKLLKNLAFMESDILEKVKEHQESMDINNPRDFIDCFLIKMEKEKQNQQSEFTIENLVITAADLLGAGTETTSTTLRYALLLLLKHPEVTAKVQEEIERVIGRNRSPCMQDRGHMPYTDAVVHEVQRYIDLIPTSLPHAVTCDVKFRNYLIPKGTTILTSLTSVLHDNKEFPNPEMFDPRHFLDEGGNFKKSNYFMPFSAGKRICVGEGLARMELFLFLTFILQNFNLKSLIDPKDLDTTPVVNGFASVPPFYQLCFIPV
Chain of Cytochrome P450 2C9 (P11712 whole entry): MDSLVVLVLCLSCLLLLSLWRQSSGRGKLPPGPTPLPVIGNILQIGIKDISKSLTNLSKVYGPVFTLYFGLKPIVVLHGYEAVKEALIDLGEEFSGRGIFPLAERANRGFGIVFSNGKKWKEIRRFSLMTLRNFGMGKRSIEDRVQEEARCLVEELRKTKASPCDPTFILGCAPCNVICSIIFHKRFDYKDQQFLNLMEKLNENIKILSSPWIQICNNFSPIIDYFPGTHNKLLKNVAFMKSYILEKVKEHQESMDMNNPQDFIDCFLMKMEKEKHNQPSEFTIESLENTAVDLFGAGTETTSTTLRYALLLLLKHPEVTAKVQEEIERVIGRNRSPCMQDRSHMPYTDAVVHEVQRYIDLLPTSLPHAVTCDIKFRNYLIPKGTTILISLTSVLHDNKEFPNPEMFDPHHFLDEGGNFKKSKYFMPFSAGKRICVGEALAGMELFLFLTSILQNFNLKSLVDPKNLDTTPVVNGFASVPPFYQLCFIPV
Chain of Cytochrome P450 3A4 (P08684 whole entry): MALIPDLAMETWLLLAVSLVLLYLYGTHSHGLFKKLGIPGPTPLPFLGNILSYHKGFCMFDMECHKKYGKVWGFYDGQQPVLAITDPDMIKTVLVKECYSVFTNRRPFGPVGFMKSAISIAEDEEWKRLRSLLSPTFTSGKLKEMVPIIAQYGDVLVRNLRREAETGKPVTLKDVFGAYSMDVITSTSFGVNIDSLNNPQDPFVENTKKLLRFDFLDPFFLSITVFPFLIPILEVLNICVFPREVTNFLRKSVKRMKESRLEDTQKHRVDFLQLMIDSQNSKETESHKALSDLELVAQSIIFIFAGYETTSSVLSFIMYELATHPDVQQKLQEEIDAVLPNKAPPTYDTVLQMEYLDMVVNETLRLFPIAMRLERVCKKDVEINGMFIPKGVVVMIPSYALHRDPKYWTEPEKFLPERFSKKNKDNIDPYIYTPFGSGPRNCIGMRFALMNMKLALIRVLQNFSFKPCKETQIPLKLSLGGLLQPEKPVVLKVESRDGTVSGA

O=C(C[n+]1ccccc1)N/N=C/c1cccs1
EC50 [1]: > 38 µM (not active)
EC50 [2]: > 150 µM (inactive)

COC(=O)c1cc(C#N)c(N(C)Cc2ccccc2)nc1C
EC50 [3]: > 53 µM (inactive)
IC50 [4]: 5.03 µM (active)

CO[C@@H]1CN(C)C(=O)c2ccc(NC(=O)Nc3ccc(C(F)(F)F)cc3)cc2OC[C@@H](C)NC[C@@H]1C
AC50 [5]: 4.23 µM (active)

C=CCN(c1ccccc1)S(=O)(=O)c1cccc(C(=O)OCC(=O)NCCOC)c1
EC50 [3]: > 53 µM (inactive)
IC50 [4]: > 47.1 µM (inactive)

CC(=O)C1=C(C)NC(SCC(=O)c2cc(Cl)ccc2Cl)=C(C#N)C1c1ccco1 (stereo not given)
CC50 [6]: 14.2 µM (active)

COc1ccc(N(C)S(=O)(=O)c2cccc(C(=O)Nc3nc(C)cs3)c2)cc1
AC50 [7]: 1.2 µM (active)

COc1ccc(Cl)cc1NC(=O)CN(C)C(=O)Cc1nnc(O)c2ccccc12
IC50 (H9c2): > 79 µM (inactive)

COc1ccccc1NC(=O)c1c(NC(=O)CCC(=O)O)sc2c1CCCCC2
AC50 [7]: < 0.005 µM (active)

O=C(COc1cccc2c1CCNC2=O)Nc1ccc(Cl)cc1
IC50 (H9c2): 11.6 µM (active)

Cc1cccc(C)c1NC(=O)c1c(C)nn(-c2ccccc2)c1Cl
CC50 [6]: 42.5 µM (active)

CCc1nn(CCCC(=O)NCc2ccc(C)cc2)c(=O)c2cc3occc3n12
EC50 [1]: > 38 µM (not active)
EC50 [2]: > 160 µM (inconclusive)

O=C(Cc1c(O)c2ccccc2[nH]c1=O)OC1CCCCC1
EC50 [3]: > 53 µM (inactive)
IC50 [4]: > 47.1 µM (inactive)

CN(C(=O)CSc1nnc(-c2ccco2)o1)C1CCCCC1
EC50 [1]: 5.16 µM (active)
EC50 [2]: > 160 µM (inactive)

O=Nc1nc2ncccn2c1-c1ccccc1
EC50 [3]: > 53 µM (inactive)
IC50 [4]: > 47.1 µM (inactive)

Cc1cc(Nc2ccccc2)n(-c2ccc(C(=O)O)cc2)n1
AC50 [7]: 1.41 µM (active)

COC(=O)[C@H](Cc1ccccc1)NC(=O)N1CCN(c2ccc(F)cc2)CC1
AC50 [7]: > 100 µM (inactive)

CC1CCc2c(C(=O)Nc3ccccn3)csc2C1 (stereo not given)
EC50 [3]: > 53 µM (inactive)
IC50 [4]: > 47.1 µM (inactive)

Cc1ccc2[nH]cc(CCNC(=O)c3cccs3)c2c1
AC50 [7]: 26.2 µM (active)

CCN(CC)c1ccc(NC(=O)C2=CCN(S(=O)(=O)c3ccc(F)cc3)CC2)c(C)c1
AC50 [7]: 5.05 µM (active)

Cc1cc(-n2c(SCC(=O)Nc3ccc(F)c(F)c3)nc3nnc(C)c-3c2N)ccc1Cl
AC50 (INS1): 5.57 µM (active)

Oc1c(Br)cc(Br)cc1/C=N/c1ccc2c(c1)OCCO2
IC50 (H9c2): 17.6 µM (active)
IC50 [8]: 119 µM (active)

COc1ccc(/N=C/c2cc(Cl)ccc2O)cc1Cl
IC50 (H9c2): 17.5 µM (active)

C[C@H](CO)N1C[C@H](C)[C@@H](CN(C)C(=O)[C@H](C)c2ccccc2)OCc2ccccc2-c2c(n(C)c3ccccc23)C1=O
AC50 [5]: 4.07 µM (active)

Cc1ccc(S(=O)(=O)NC2=NCN(C3CCN(Cc4ccccc4)CC3)CN2)cc1
EC50 [3]: > 53 µM (inactive)
IC50 [4]: > 47.1 µM (inactive)

CCOC(=O)c1cccc(NC(=O)CSc2nc3ccccc3c(=O)n2CCOC)c1
IC50 (H9c2): > 79 µM (inactive)

CN1c2ccc(C3=CCCCC3)cc2[C@H]2[C@H](CCN2C(=O)C2CC2)[C@@H]1CO
AC50 [5]: 0.964 µM (active)

CCCCC(NC(=O)Cc1c(C)c2cc3c(C)c(C)oc3c(C)c2oc1=O)C(=O)O (stereo not given)
AC50 [7]: > 100 µM (inactive)

O=C1N=C(NO)S/C1=C\c1ccccc1-n1cccn1
AC50 [7]: 4.82 µM (active)

O=C(Nc1ccc(C(=O)N2CCCc3ccccc32)cc1)c1cccs1
CC50 [6]: 35.4 µM (active)

FC(F)(F)c1nnc2ccc(N3CCCC3)nn12
IC50 (H9c2): 39.7 µM (inactive)

CCOc1ccc(S(=O)(=O)N(C)CCO)cc1-c1nc(O)c2c(n1)c(C(C)(C)C)nn2C
IC50 (H9c2): > 79 µM (inactive)

CCn1c(SCC(=O)Nc2cccc(C)c2)nc2ccccc2c1=O
CC50 [6]: > 50 µM (active)

O=C(Nc1cccs1)NC1CCCC1
AC50 [7]: 1.83 µM (active)

O=S(=O)(c1ccc(F)cc1)N1CCC(c2nc(O)c3nnn(Cc4ccc5c(c4)OCCO5)c3n2)CC1
CC50 [6]: 19.6 µM (active)

COC(=O)c1cc(C(=O)OCC(=O)N2c3ccccc3NC(=O)C2(C)C)cc([N+](=O)[O-])c1
IC50 (H9c2): 10.8 µM (active)

O=C(CCCN1C(=O)c2cccc3cccc(c23)C1=O)N1CCN(c2ccc(F)cc2)CC1
CC50 [6]: 46.2 µM (active)

Cc1onc(-c2ccccc2)c1C(=O)OCC(=O)Nc1ccc(C#N)cc1
CC50 [6]: 8 µM (active)

CC[C@H](C)[C@@H](C(=O)NCCCCCCCCCCC(=O)N1CCN(C(=O)OC(C)(C)C)CC1)n1cc(CCCCCNC(=O)OC(C)(C)C)nn1
AC50 (INS1): 4.08 µM (active)

Cc1ccc(C(=O)OCC(=O)Nc2sccc2C(N)=O)cc1NC(=O)c1ccco1
IC50 (H9c2): > 79 µM (inactive)

CO[C@H]1CN(C)C(=O)c2cc(NC(=O)C3CC3)ccc2OC[C@H](C)N(Cc2cc(F)ccc2F)C[C@@H]1C
AC50 [5]: 6.44 µM (active)

COc1cccc(C(=O)Nc2c(C(N)=O)oc3ccccc23)c1
IC50 (H9c2): > 79 µM (inactive)

O=C(N(c1ccccc1)c1ccccc1)N(c1ccccc1)c1ccccc1
CC50 [6]: 17 µM (active)

CC(C)(C)[S@+]([O-])N1Cc2cc(C(=O)N[C@H]3CCN(Cc4ccccc4)C3)nc(-c3cccc(-c4ccncc4)c3)c2[C@@H]1CCO
AC50 [5]: 6.19 µM (active)

Cc1cc(SCC(=O)Nc2cccc(S(=O)(=O)NC3=NCCCCC3)c2)nc2ccccc12
CC50 [6]: 40.6 µM (active)

N=C(NNS(=O)(=O)c1ccccc1)c1ccccn1
IC50 (H9c2): 23.5 µM (active)

Cc1cc(Nc2ccccc2C(=O)O)nc2nc3ccccc3c(=O)n12
IC50 (H9c2): 14.2 µM (active)

Nc1nc(Cc2ccccc2)nc(Cc2ccccc2)c1-c1ccccc1
AC50 (Cytochrome P450 2C19): 6.31 µM (inconclusive)
AC50 (Cytochrome P450 3A4): 3.16 µM (inconclusive)
AC50 (Cytochrome P450 2D6): 3.16 µM (inconclusive)
AC50 (Cytochrome P450 2C9): 3.16 µM (inconclusive)
AC50 (Cytochrome P450 1A2): 1 µM (inconclusive)

CN1/C(=C\C(=O)C[n+]2ccc(C(=O)c3ccccc3)cc2)C(C)(C)c2ccccc21
EC50 [1]: 3.12 µM (active)
AC50 (INS1): 2.42 µM (active)
EC50 [2]: > 150 µM (inactive)

N#Cc1ccc(NC(=O)CN2C(=O)NC3(CCCCCCC3)C2=O)cc1Cl
CC50 [6]: 30.3 µM (active)
